Measurements published in PubChem BioAssay (NCI).
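Each compound was tested at five concentrations against cells in 96-well plates for 48 hours. GI50 is the concentration that inhibits growth by half. TGI: total growth inhibition.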

Key:
Assay in all cases: growth of human tumour cells (NCI), 48 h
LOX IMVI melanoma = test system: LOX IMVI melanoma
NCI-H522 lung = test system: NCI-H522 lung
HOP-92 NSCLC = test system: HOP-92 NSCLC
DMS 273 small cell lung = test system: DMS 273 small cell lung
SNB-78 CNS = test system: SNB-78 CNS
OVCAR-3 ovarian = test system: OVCAR-3 ovarian
HOP-18 NSCLC = test system: HOP-18 NSCLC
A549 NSCLC = test system: A549 NSCLC
DLD-1 colon = test system: DLD-1 colon
PC-3 prostate = test system: PC-3 prostate
MALME-3M melanoma = test system: MALME-3M melanoma
MDA-MB-231 breast = test system: MDA-MB-231 breast

Row | Structure (SMILES) | TGI (LOX IMVI melanoma) [µM] | TGI (NCI-H522 lung) [µM] | TGI (HOP-92 NSCLC) [µM] | TGI (DMS 273 small cell lung) [µM] | TGI (SNB-78 CNS) [µM] | TGI (OVCAR-3 ovarian) [µM] | TGI (HOP-18 NSCLC) [µM] | TGI (A549 NSCLC) [µM] | TGI (DLD-1 colon) [µM] | TGI (PC-3 prostate) [µM] | TGI (MALME-3M melanoma) [µM] | TGI (MDA-MB-231 breast) [µM] | GI50 (LOX IMVI melanoma) [µM] | GI50 (NCI-H522 lung) [µM] | GI50 (HOP-92 NSCLC) [µM] | GI50 (PC-3 prostate) [µM] | GI50 (OVCAR-3 ovarian) [µM] | GI50 (MALME-3M melanoma) [µM] | GI50 (MDA-MB-231 breast) [µM] | GI50 (A549 NSCLC) [µM]
1 | Clc1ncnc2c1ncn2CCCCCCCCCCCCn1cnc2c(Cl)ncnc21 | 7.19 | 2.87 | 19.4 | 14.1 | 11.2 | 23.3 | 58.3 | 26.4 | 20.4 | – | – | – | – | – | – | – | – | – | – | –
2 | OCC(O)C(O)C(O)C(/C=N\Nc1ncnc2ccc(Br)cc12)=N/Nc1ncnc2ccc(Br)cc12 (stereo not drawn) | > 100 | 54.9 | > 100 | – | – | > 100 | – | > 100 | – | > 100 | 57 | > 100 | – | – | – | – | – | – | – | –
3 | CCOC(=O)C(=Cn1c(=S)[nH]c2ccc([N+](=O)[O-])cc21)C(=O)OCC | > 100 | > 100 | > 100 | – | – | > 100 | – | > 100 | – | > 100 | > 100 | > 100 | – | – | – | – | – | – | – | –
4 | O=C(Nc1cccc(-n2ccc3c(NC(=O)c4ccccc4)nccc32)c1)c1cc(N2CCOCC2)cc(C(F)(F)F)c1 | > 100 | – | > 26.2 | – | – | 0.0605 | – | – | – | > 100 | > 100 | 0.651 | 0.0912 | 0.0269 | 0.3 | 0.152 | 0.0259 | 1.25 | 0.245 | 0.142
5 | COc1nc2[nH]ccc2c(=O)n1C | > 100 | – | > 100 | > 100 | > 100 | – | > 100 | > 100 | > 100 | – | > 100 | – | – | – | – | – | – | – | – | –
6 | CCOc1cc(C2SCC(=O)N2c2nc3cc4sc(N5C(=O)CSC5c5ccc(O)c(OCC)c5)nc4cc3s2)ccc1O (stereo not drawn) | > 100 | > 100 | > 88.6 | – | – | > 100 | – | > 100 | – | > 100 | > 100 | > 100 | – | – | – | – | – | – | – | –
7 | CCOC(=O)C(NCc1cccc(C(F)(F)F)c1)(NC(=O)c1ccccc1)C(F)(F)F (stereo not drawn) | 48.3 | 50.4 | 64.7 | – | – | 82 | – | > 100 | – | > 100 | 69 | 29.9 | – | – | – | – | – | – | – | –
8 | COc1cc(/C=C/C(=O)OC[C@H](Br)[C@H](OC(C)=O)c2ccc3c(c2)OCO3)cc(OC)c1OC | > 100 | > 100 | > 100 | – | – | > 100 | – | > 100 | – | > 100 | > 100 | > 100 | – | – | – | – | – | – | – | –
9 | CC(=O)NC1=C(NCc2ccc(Cl)cc2)C(=O)c2ccccc2C1=O | 20.9 | 3.13 | – | 14.6 | 24.1 | 13.1 | – | > 50 | 13.2 | – | 16.5 | – | – | – | – | – | – | – | – | –
10 | COc1ccc(C2(C3c4cc(OC)c(OC)cc4CCN3C)SCCCS2)cc1O (stereo not drawn) | > 100 | > 100 | > 100 | – | – | > 100 | – | > 100 | – | > 100 | > 100 | > 100 | – | – | – | – | – | – | – | –
11 | N#Cc1nc(/C=C/c2ccccc2)oc1N | > 100 | > 100 | > 100 | – | – | > 100 | – | > 100 | – | > 100 | > 100 | > 100 | – | – | – | – | – | – | – | –
12 | O=C(C#Cc1cn(C2CC(O)C(CO)O2)c(=O)[nH]c1=O)c1ccccc1 (stereo not drawn) | > 100 | 17.7 | 53.2 | – | – | 37.7 | – | > 100 | – | > 100 | 24.8 | > 100 | – | – | – | – | – | – | – | –
